The target of one series is BCR-KIT/BaF3 cells (Homo sapiens, UniProt P10721). In words: BCR-KIT/BaF3 cell proliferation assay (ATPlite). It is filed as cell-based. Conditions: read-out: BCR/BaF3 (IC50 μM) Kit. As for the experimental part: Compounds are assessed in a variety of cell based assays. For example BCR-FMS/BaF3, BCR-KIT/BaF3, M-NFS-60, M-07e, and BAC1.2F5 cell proliferation assays are used to assess inhibitory activity of Fms or Kit and MV-4-11 cell proliferation assay is used to assess inhibitory activity in Flt-3. Reagent and assay conditions are as follows: • BCR-FMS/BaF3 and BCR-KIT/BaF3 cells: • Maintained in RPMI containing 10% FBS, 1% PenStrep, 1% NEAA, and 1% L-Glutamine, supplemented with 1 mg/mL G418 and 5% WEHI-CM (or recombinant murine IL-3). • Confluent cells are split 1:50 to 1:100 every 3-4 days. • M-NFS-60 cells (ATCC #CRL-1838): • Maintained in RPMI containing 10% FBS, 1% Hepes, 1% NaPyruvate, and 0.45% Glucose, supplemented with 62 ng/mL murine M-CSF. • Confluent cells are split 1:20 every 3-4 days. • M-07e cells (DSMZ #ACC 104): • Maintained in IMDM containing 10% FBS, supplemented with either 200 ng/mL human SCF or […] SCF (R&D Systems 255-SC). • Confluent cells are split 1:5 to 1:10 every 3-4 days. • BAC1.2F5 cells: • Maintained in Alpha-MEM containing 10% Newborn Calf Serum (Invitrogen #26010-074) supplemented with 36 ng/mL murine M-CSF. • Confluent cells are split 1:4 every 3-4 days. • MV-4-11 cells: • Maintained in Iscove's Modified Dulbecco's Medium containing 10% FBS. • Confluent cells are split 1:4 every 3-4 days. On day 1, cells are counted, then centrifuged in a conical tube for 5 minutes at 1000 rpm. The supernatant is removed and cells are re-suspended as follows: • BCR-FMS/BaF3 and BCR-KIT/BaF3: resuspend in growth media+1 mg/mL G418 (without WEHI/IL-3) to 2×10^5 cells/mL. • M-NFS-60: resuspend in growth media +62 ng/mL murine M-CSF to 5×10^5 cells/mL. • M-07e: resuspend in growth media +200 ng/mL human SCF to 5×10^5 cells/mL. • BAC1.2F5: resuspend in growth media +36 ng/mL murine M-CSF to 1.4×10^5 cells/mL. • MV-4-11: resuspend in growth media +10% FBS to 5×10^5 cells/mL. The cells are plated (50 μL) in each well of a 96-well dish (Corning 3610) and incubated at 37° C. in 5% CO2 overnight, cells plated to a final concentration of cells as follows: • BCR-FMS/BaF3 and BCR-KIT/BaF3: 10,000 cells per well. • M-NFS-60: 25,000 cells per well. • M-07e: 25,000 cells per well. • BAC1.2F5: 7,000 cells per well. • MV-4-11: 25,000 cells per well. On day 2, compound at a maximum concentration of 5 mM is serially diluted 1:3 for a total of 8 point titration with DMSO as a control. A 1 μL aliquot of each dilution point is added to 249 μL growth media and 50 μL is added to a well containing cells, providing 10 μM compound for the maximum concentration point. The cells are incubated for 3 days at 37° C. in 5% CO2. On day 5, ATPlite 1 step Luminescence Assay System (Perkin Elmer #6016739) is brought to room temperature along with the cell cultures. ATPlite is added to each well as follows: • BCR-FMS/BaF3 and BCR-KIT/BaF3: 25 μL per well. • M-NFS-60: 25 μL per well. • M-07c: 40 μL per well. • BAC1.2F5: 50 μL per well. • MV-4-11: 40 μL per well. The cells are incubated at room temperature for 10 minutes, then luminescence is read on Safire reader. The measured luminescence correlates directly with cell number, such that the reading as a function of compound concentration is used to determine the IC50 value.

The next series addresses BCR-FMS/BaF3 cells (Homo sapiens, UniProt P07333). In words: BCR-FMS/BaF3 cell proliferation assay (ATPlite). It is filed as cell-based. As for the experimental part: Compounds are assessed in a variety of cell based assays. For example BCR-FMS/BaF3, BCR-KIT/BaF3, M-NFS-60, M-07e, and BAC1.2F5 cell proliferation assays are used to assess inhibitory activity of Fms or Kit and MV-4-11 cell proliferation assay is used to assess inhibitory activity in Flt-3. […] On day 1, cells are counted, then centrifuged in a conical tube for 5 minutes at 1000 rpm. The supernatant is removed and cells are re-suspended as follows: • BCR-FMS/BaF3 and BCR-KIT/BaF3: resuspend in growth media+1 mg/mL G418 (without WEHI/IL-3) to 2×10^5 cells/mL. • M-NFS-60: resuspend in growth media +62 ng/mL murine M-CSF to 5×10^5 cells/mL. • M-07e: resuspend in growth media +200 ng/mL human SCF to 5×10^5 cells/mL. • BAC1.2F5: resuspend in growth media +36 ng/mL murine M-CSF to 1.4×10^5 cells/mL. • MV-4-11: resuspend in growth media +10% FBS to 5×10^5 cells/mL. […] On day 2, compound at a maximum concentration of 5 mM is serially diluted 1:3 for a total of 8 point titration with DMSO as a control. A 1 μL aliquot of each dilution point is added to 249 μL growth media and 50 μL is added to a well containing cells, providing 10 μM compound for the maximum concentration point. The cells are incubated for 3 days at 37° C. in 5% CO2. […] ATPlite is added to each well as follows: • BCR-FMS/BaF3 and BCR-KIT/BaF3: 25 μL per well. • M-NFS-60: 25 μL per well. • M-07c: 40 μL per well. • BAC1.2F5: 50 μL per well. • MV-4-11: 40 μL per well. The cells are incubated at room temperature for 10 minutes, then luminescence is read on Safire reader. The measured luminescence correlates directly with cell number, such that the reading as a function of compound concentration is used to determine the IC50 value.

For another series, the target named is Fms kinase (Homo sapiens (Human), UniProt P07333). In words: Fms kinase biochemical activity assay (AlphaScreen, biotin-(E4Y)10 phosphorylation). Conditions: read-out: Biochemical activity (IC50 μM) Fms. As for the experimental part:
In one assay the biochemical activity IC50 values are determined with respect to inhibition of Fms kinase activity, where inhibition of phosphorylation of a peptide substrate is measured as a function of compound concentration. Compounds to be tested, dissolved in DMSO (1 μL), are added to a white 384-well plate (Costar #3705). Working stocks of Fms kinase (Invitrogen #PV3249), biotin-(E4Y)10 substrate (Upstate Biotech, Cat#12-440), and ATP (Sigma, Cat#A-3377) are prepared in 25 mM Hepes pH 7.5, 0.5 mM MgCl2, 2 mM MnCl2, 2 mM DTT, 0.01% BSA, and 0.01% Tween-20. All components are added to the 384-well plate for a final concentration of 1 ng/well Fms, 30 nM biotin-(E4Y)10 (Upstate Biotechnology) and 100 μM ATP in a volume of 20 μL. Each sample is at 5% DMSO. The plate is then incubated for 20 minutes at 30° C. Just before use, working stocks of donor and acceptor beads from the AlphaScreen PY20 Detection Kit (PerkinElmer, Cat#676601M) are prepared in 25 mM Hepes pH 7.5, pH 7.4, 100 mM EDTA, 0.01% BSA. To stop the reaction, the plate is uncovered in the dark and 5 μL of Donor Beads solution (Streptavidin beads) is added to each well. The plate is incubated at room temperature for 20 minutes. Five microliters of Acceptor Beads solution (PY20 coated beads) are then added to each well. The final concentration of each bead is 10 μg/mL. The plates are incubated at room temperature for 60 minutes. Fluorescence signal is recorded on the Envision reader. […] The signal vs. compound concentration is used to determine the IC50.

The nature of series [1]: Turbidity assay of relative solubility in aqueous buffers. It is filed as physicochemical. As to conditions: pH 4.5 (SIF). As for the experimental part: As an indication of relative solubility, the turbidity of compounds in aqueous solutions is assessed. To assess possible compound properties in different physiological compartments, such as stomach, intestine, and blood, a series of aqueous buffers with varying pH is used. Thus each compound is diluted into four different physiologically relevant buffers and solution turbidity is measured by spectrophotometry.
Compounds are dissolved at a concentration of 25 mM in dimethyl sulfoxide, then serially diluted 1:1 into a 96 well plate, diluting 10 times in pure dimethyl sulfoxide, with the final well of each row a dimethyl sulfoxide blank. In an assay plate, 99 μL of appropriate buffer is added to each well, and 1 μL of each sample dilution is added to the buffer, achieving a range of final total concentrations in aqueous solutions having different pH. The buffers used are Simulated Gastric Fluid (SGF-pH 1.5) 0.5M NaCl, pH 1.5; Simulated Intestinal fluid (SIF-pH 4.5 and pH 6.8) 0.05M NaH2PO4, pH 4.5 and 6.8; and Hepes Buffer (HEPES-pH 7.4) 10 mM HEPES, 150 mM NaCl, pH 7.4. Control compounds pyrene, estriol and propranolol HCl are also assessed. Plates are spun and then mixed for 1 minute, and the absorbance is read using a Tecan Safire II to read wavelengths in the visible range (490, 535, and 650 nm) at four locations per well, reflecting the degree of turbidity present. The average optical density for each wavelength in each well is graphed vs. compound concentration, and the concentration at which the curve crosses a threshold O.D. of 0.01 for each wavelength is reported as the endpoint turbidity assay result. The average of the three wavelengths is used to compare turbidity of compounds. Compounds are considered to have low solubility if the threshold concentration is <31.3 μM, moderate solubility if the threshold concentration is 31.3 μM to 250 μM, and high solubility if the threshold concentration is >250 μM.

Each structure is given as a SMILES string.

BCR-FMS/BaF3 cells, sequence (P07333 20-972 limits assumed, change not shown): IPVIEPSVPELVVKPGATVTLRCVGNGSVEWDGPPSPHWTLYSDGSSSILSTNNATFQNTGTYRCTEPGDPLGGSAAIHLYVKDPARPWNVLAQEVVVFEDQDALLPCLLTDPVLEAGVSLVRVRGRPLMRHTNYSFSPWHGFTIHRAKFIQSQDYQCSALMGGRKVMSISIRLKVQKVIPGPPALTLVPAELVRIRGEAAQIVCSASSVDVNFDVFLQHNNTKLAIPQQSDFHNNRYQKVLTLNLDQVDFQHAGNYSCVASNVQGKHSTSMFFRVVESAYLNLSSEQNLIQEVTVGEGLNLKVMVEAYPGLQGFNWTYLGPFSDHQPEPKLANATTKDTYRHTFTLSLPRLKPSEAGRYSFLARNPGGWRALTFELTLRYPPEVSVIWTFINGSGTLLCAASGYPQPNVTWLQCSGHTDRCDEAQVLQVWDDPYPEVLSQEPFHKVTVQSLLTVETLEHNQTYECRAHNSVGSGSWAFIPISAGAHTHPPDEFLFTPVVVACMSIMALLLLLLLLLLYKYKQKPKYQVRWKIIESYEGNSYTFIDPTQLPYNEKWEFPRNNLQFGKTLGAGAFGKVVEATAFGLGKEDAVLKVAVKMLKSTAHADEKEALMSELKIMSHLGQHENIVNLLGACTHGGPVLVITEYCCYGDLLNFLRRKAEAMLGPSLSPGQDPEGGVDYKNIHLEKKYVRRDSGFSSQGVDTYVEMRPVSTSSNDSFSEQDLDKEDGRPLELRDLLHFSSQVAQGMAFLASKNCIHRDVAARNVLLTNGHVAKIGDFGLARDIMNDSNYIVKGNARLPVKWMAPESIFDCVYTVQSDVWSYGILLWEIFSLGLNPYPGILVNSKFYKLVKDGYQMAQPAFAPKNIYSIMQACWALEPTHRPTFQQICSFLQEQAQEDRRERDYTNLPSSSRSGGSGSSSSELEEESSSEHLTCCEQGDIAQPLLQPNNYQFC
BCR-KIT/BaF3 cells, sequence (P10721 26-976 limits assumed, change not shown): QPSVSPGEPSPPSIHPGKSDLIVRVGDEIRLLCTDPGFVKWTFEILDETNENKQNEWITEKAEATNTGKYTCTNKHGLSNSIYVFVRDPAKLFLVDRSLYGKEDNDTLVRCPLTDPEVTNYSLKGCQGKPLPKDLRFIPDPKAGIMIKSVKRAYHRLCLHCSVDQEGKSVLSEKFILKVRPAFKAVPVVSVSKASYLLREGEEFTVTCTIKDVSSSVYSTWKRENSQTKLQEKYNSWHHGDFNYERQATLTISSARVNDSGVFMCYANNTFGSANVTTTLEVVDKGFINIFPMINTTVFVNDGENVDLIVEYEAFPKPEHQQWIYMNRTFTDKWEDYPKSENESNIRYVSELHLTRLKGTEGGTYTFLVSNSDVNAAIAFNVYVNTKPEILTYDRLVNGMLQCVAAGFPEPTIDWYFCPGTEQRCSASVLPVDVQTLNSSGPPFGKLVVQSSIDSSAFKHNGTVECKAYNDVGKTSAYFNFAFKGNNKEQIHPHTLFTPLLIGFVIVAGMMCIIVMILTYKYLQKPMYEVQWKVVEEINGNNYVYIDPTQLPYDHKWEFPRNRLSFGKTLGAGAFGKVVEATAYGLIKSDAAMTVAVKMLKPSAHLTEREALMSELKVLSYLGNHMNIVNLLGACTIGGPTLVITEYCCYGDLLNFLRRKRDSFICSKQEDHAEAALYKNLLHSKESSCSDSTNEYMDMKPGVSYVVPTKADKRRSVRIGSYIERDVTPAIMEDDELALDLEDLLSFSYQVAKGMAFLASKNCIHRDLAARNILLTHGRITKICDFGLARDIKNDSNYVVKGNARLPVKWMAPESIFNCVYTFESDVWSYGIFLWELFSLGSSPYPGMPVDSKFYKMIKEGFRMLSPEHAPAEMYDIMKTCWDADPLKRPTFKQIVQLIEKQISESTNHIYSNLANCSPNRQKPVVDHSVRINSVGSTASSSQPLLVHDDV
Fms kinase, sequence (P07333 20-972): as the sequence (P07333 20-972 limits assumed, change not shown) above

In the case of `COc1ccc(CNc2ccc(Cc3c[nH]c4ncc(Cl)cc34)cn2)c(OC)n1` [Compound P-1496, [5-(5-Chloro-1H-pyrrolo[2,3-b]pyridin-3-ylmethyl)-pyridin-2-yl]-(2,6-dimethoxy-pyridin-3-ylmethyl)-amine], the IC50 was above 0.1 µM at BCR-KIT/BaF3 cells; below 0.1 µM on BCR-FMS/BaF3 cells (BCR-FMS/BaF3 cells, read-out: BCR/BaF3 (IC50 μM) Fms); below 0.1 µM on Fms kinase. Further, on BCR-FMS/BaF3 cells (Kit IC50/Fms IC50, BCR-KIT/BaF3 vs BCR-FMS/BaF3 cells), the “BCR/BaF3 selectivity (Kit IC50/Fms IC50)” value is recorded as above 20.

On to `COc1ncc(F)cc1CNc1ccc(Cc2c[nH]c3ncc(C#N)cc23)c(F)n1` [Compound P-2193, 3-{2-Fluoro-6-[(5-fluoro-2-methoxy-pyridin-3-ylmethyl)-amino]-pyridin-3-ylmethyl}-1H-pyrrolo[2,3-b]pyridine-5-carbonitrile], for which the “turbidity threshold (L, M, H) 4.5” value in series [1] was “L (low solubility if the threshold concentration is <31.3 μM)”.
